These results are taken from patent US20140005163A1 (NOVARTIS AG, priority 2010, published 2014).

SMILES strings stand for the structures. Converted amounts (≈) assume the structure as drawn. Read-outs that look alike come from different tables or passages of the source.

One data set can be described thus: Solubility at pH 6.8. The format is physicochemical. In a few lines: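 Solubility was measured at pH 6.8 following the cited Zhou et al. (2007) procedure.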
The target of another data set is T1, PI3K alpha (Homo sapiens, UniProt P42336).
T1 construct: p85(iSH2) fusion partner (see partner chain) (N); His tag (C); made in house; host or cells: baculovirus; Tn5 (Trichoplusia ni) or TiniPro insect cells
T1 sequence (P42336 with tags, fused parts or gaps limits assumed): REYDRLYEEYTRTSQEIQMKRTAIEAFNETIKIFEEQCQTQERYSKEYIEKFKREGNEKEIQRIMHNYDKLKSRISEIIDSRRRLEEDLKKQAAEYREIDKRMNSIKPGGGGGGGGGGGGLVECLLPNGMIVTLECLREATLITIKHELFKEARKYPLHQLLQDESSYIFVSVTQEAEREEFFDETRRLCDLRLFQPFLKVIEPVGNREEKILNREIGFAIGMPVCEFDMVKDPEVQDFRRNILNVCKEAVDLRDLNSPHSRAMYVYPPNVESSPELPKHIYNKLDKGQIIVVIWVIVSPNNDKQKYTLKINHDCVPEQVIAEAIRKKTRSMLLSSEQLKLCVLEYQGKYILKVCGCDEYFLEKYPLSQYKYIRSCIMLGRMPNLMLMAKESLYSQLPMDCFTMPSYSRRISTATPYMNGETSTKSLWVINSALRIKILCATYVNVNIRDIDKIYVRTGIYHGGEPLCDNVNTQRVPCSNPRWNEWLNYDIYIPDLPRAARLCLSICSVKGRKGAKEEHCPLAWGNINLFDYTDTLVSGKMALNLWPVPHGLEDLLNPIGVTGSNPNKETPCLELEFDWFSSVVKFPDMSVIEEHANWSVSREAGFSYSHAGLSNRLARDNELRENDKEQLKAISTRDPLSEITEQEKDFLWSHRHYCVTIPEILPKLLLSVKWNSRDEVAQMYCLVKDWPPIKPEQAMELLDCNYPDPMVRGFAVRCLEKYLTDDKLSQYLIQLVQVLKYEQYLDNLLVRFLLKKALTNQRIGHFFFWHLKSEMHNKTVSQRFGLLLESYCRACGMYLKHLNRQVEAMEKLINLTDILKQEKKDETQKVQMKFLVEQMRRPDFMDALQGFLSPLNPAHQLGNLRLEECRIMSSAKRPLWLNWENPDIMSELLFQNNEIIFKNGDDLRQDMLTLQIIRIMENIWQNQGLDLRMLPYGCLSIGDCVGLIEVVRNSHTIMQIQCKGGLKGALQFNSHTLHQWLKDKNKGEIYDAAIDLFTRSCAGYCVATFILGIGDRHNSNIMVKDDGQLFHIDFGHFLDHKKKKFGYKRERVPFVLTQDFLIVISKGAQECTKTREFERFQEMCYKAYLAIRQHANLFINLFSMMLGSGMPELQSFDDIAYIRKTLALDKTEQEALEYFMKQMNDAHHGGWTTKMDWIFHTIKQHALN
The experiment in a line: PI3K alpha kinase assay (Kinase-Glo luminescence). The format is biochemical. The gist of the method:
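PI3K alpha at 10 nM with 1 μM ATP and 10 μg/mL phosphatidylinositol in 10 mM TRIS pH 7.5, 3 mM MgCl2, 50 mM NaCl, 0.05% CHAPS, 1 mM DTT, 60 min at room temperature. Remaining ATP read by Kinase-Glo luminescence. IC50 by 4-parameter fit over 8 concentrations.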
Background: Kinase-Glo measures the ATP left after a reaction by luminescence.

A further data set has as its target T2, PI3K delta (Homo sapiens, UniProt O00329).
T2 construct: for the full-length p110-d subunit are generated and fused by overlapping PCR; p85(iSH2) fusion partner (see partner chain) (N); His tag (C); made in house; host or cells: baculovirus; Tn5 (Trichoplusia ni) or TiniPro insect cells
The experiment in a line: PI3K delta kinase assay (Kinase-Glo luminescence). The format is biochemical. In a few lines: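 Construct BV-1060, p85 iSH2–linker–full-length p110δ, His-tagged, at 10 nM, with 1 μM ATP and 10 μg/mL phosphatidylinositol in pH 7.5 Tris, 3 mM MgCl2, 50 mM NaCl, 0.05% CHAPS. Run 60 min at room temperature; remaining ATP read by Kinase-Glo luminescence; IC50 from 4-parameter logistic fit of 8 concentrations.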

For data set [1], the system named is PKB Ser473 phosphorylation in Rat1-myr-HA-p110 alpha cells. Nature of the data set: Reverse protein array assay, PKB Ser473 phosphorylation in Rat1-myr-p110 alpha cells. Format: cell-based. The note with it: 0.5 h, pAkt Ser473, 30 minutes compound incubation, read-out: p-PKB IC50. In a few lines: (§1)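 Lysates were arrayed at four dilutions, and phospho-PKB Ser473 was quantified by relative fluorescence signal. They came from Rat1-myr-HA-p110 alpha, beta or delta cells exposed for 30 min at 37 °C to an 8-point compound series with 0.2% DMSO constant.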

Data set [2] has as its system PKB Ser473 phosphorylation in Rat1-myr-HA-p110 beta cells. Nature of the data set: Reverse protein array assay, PKB Ser473 phosphorylation in Rat1-myr-p110 beta cells. The format is cell-based. Particulars: 0.5 h, pAkt Ser473, 30 minutes incubation, read-out: p-PKB IC50. In a few lines: as §1
Setting [3] is: pH 6.8, aqueous buffer, thermodynamic from solid, read-out: solubility.

T2 sequence (O00329 with tags, fused parts or gaps limits assumed): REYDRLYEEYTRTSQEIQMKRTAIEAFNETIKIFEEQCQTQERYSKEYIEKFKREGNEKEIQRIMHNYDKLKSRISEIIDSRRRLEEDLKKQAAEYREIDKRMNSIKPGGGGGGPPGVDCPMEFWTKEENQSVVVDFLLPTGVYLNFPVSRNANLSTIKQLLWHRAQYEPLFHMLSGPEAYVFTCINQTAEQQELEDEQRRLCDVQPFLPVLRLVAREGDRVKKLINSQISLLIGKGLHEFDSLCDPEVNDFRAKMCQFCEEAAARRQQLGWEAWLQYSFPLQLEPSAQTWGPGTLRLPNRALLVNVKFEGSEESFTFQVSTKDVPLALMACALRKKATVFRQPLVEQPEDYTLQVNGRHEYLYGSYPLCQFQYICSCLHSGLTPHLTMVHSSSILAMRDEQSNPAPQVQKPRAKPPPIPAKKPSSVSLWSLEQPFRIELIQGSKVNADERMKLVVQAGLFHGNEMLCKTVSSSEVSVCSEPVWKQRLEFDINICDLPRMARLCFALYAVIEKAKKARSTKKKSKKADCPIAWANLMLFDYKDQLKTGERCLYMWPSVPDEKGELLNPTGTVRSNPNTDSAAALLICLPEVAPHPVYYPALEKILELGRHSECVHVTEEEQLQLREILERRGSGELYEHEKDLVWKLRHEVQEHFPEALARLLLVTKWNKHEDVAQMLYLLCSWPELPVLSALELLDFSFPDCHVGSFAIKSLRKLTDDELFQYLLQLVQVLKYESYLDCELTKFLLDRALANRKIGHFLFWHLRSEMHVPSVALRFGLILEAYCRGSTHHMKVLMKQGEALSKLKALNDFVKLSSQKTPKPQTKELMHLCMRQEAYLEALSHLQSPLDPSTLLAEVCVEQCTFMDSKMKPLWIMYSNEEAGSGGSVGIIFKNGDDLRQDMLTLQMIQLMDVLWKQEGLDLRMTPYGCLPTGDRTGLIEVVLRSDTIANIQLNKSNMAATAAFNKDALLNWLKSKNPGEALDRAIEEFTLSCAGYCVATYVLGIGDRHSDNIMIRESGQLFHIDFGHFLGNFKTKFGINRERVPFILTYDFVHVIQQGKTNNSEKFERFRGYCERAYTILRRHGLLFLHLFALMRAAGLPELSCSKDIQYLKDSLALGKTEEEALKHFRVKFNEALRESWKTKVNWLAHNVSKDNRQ

The solubility is the dissolved amount per volume that the medium holds. As usually defined, the IC50 is the midpoint of a concentration-inhibition curve. For the compound `COc1ccc(-c2ccc3ncc4c(c3c2)n(-c2cc(C)nn2C)c(=O)n4C)cn1` [Example 2.3, 1-(2,5-Dimethyl-2H-pyrazol-3-yl)-8-(6-methoxy-pyridin-3-yl)-3-methyl-1,3-dihydro-imidazo[4,5-c]quinolin-2-one], in the data set “Solubility at pH 6.8” (setting [3]), the solubility worked out at 7 µg/mL (≈ 17.5 µM). The IC50 on PI3K alpha amounted to 30 nM; at PI3K delta, 30 nM; in data set [1], 12 nM; in data set [2], 116 nM.

As to `COc1ncc(-c2ccc3ncc4c(c3c2)n(-c2cn(C)nc2C)c(=O)n4C)cc1C#N` [Example 132, 5-[1-(1,3-Dimethyl-1H-pyrazol-4-yl)-3-methyl-2-oxo-2,3-dihydro-1H-imidazo[4,5-c]quinolin-8-yl]-2-methoxy-nicotinonitrile], the solubility in the data set “Solubility at pH 6.8” (setting [3]) came out at 17 µg/mL (≈ 40 µM). Besides, the half-maximal inhibitory concentration (IC50) was 138 nM on PI3K alpha, 58 nM at PI3K delta, 51 nM in data set [1] and 99 nM in data set [2].

In “Solubility at pH 6.8” (pH 6.8), `Cc1nn(C)cc1-n1c(=O)n(C)c2cnc3ccc(-c4cccc(O)c4)cc3c21` [Example 32.1, 1-(1,3-Dimethyl-1H-pyrazol-4-yl)-8-(3-hydroxy-phenyl)-3-methyl-1,3-dihydro-imidazo[4,5-c]quinolin-2-one] had a solubility of 2 µg/mL (≈ 5.19 µM). In addition, the IC50 on PI3K alpha turned out to be 7 nM; at PI3K delta, 47 nM; in data set [1], 85 nM; in data set [2], 110 nM.

With `COCc1cc(-c2ccc3ncc4c(c3c2)n(-c2cn(C)nc2C)c(=O)n4C)cnc1OC` [Example 202, 1-(1,3-Dimethyl-1H-pyrazol-4-yl)-8-(6-methoxy-5-methoxymethyl-pyridin-3-yl)-3-methyl-1,3-dihydro-imidazo[4,5-c]quinolin-2-one], in “Solubility at pH 6.8” (setting [3]), the solubility was 16 µg/mL (≈ 36 µM). In addition, the IC50 on PI3K alpha turned out to be 11 nM; at PI3K delta it was 6 nM; in data set [1], 23 nM; in data set [2], 29 nM.

For the compound `Cc1ncc(-c2ccc3ncc4c(c3c2)n(-c2cn(C)nc2C)c(=O)n4C)cc1OC(C)C` [Example 84.1, 1-(1,3-Dimethyl-1H-pyrazol-4-yl)-8-(5-isopropoxy-6-methyl-pyridin-3-yl)-3-methyl-1,3-dihydro-imidazo[4,5-c]quinolin-2-one], the solubility in “Solubility at pH 6.8” (setting [3]) amounted to 219 µg/mL (≈ 495 µM). For the same compound, the IC50 at PI3K alpha is 6 nM; on PI3K delta, 4 nM; in data set [1] it was less than 5 nM; in data set [2], 8 nM.

Compound `COc1ccc(-c2ccc3ncc4c(c3c2)n(-c2cn(C(C)C)nc2C)c(=O)n4C)cn1` [Example 2.8, 1-(1-Isopropyl-3-methyl-1H-pyrazol-4-yl)-8-(6-methoxy-pyridin-3-yl)-3-methyl-1,3-dihydro-imidazo[4,5-c]quinolin-2-one] registered a solubility in “Solubility at pH 6.8” (pH 6.8) of 2 µg/mL (≈ 4.67 µM). For the same compound, the IC50 at PI3K alpha was found to be 29 nM; at PI3K delta, 15 nM; in data set [1] it was 46 nM; in data set [2] it was 41 nM.

Take `CNC(=O)c1cc(-c2ccc3ncc4c(c3c2)n(-c2cn(C(C)C)nc2C)c(=O)n4C)cnc1N` [Example 224.2, 2-Amino-5-[1-(1-isopropyl-3-methyl-1H-pyrazol-4-yl)-3-methyl-2-oxo-2,3-dihydro-1H-imidazo[4,5-c]quinolin-8-yl]-N-methyl-nicotinamide]: the solubility in “Solubility at pH 6.8” (setting [3]) stood at 16 µg/mL (≈ 34 µM). Besides, the IC50 was determined as 93 nM on PI3K alpha, 41 nM at PI3K delta, 104 nM in data set [1] and 130 nM in data set [2].

Consider `Cc1nn(C)cc1-n1c(=O)n(C)c2cnc3ccc(-c4cnc(CO)c(OC(C)C)c4)cc3c21` [Example 190, 1-(1,3-Dimethyl-1H-pyrazol-4-yl)-8-(6-hydroxymethyl-5-isopropoxy-pyridin-3-yl)-3-methyl-1,3-dihydro-imidazo[4,5-c]quinolin-2-one], for which the solubility in “Solubility at pH 6.8” (setting [3]) worked out at 5 µg/mL (≈ 10.9 µM). Further, the IC50 is 13 nM on PI3K alpha, 11 nM on PI3K delta, 19 nM in data set [1] and 16 nM in data set [2].

For `Cc1nn(C)cc1-n1c(=O)n(C)c2cnc3ccc(-c4cnc5cc[nH]c5c4)cc3c21` [Example 99, 1-(1,3-Dimethyl-1H-pyrazol-4-yl)-3-methyl-8-(1H-pyrrolo[3,2-b]pyridin-6-yl)-1,3-dihydro-imidazo[4,5-c]quinolin-2-one], in the data set “Solubility at pH 6.8” (pH 6.8), the solubility is 2 µg/mL (≈ 4.88 µM). In addition, the IC50 on PI3K alpha was 16 nM; at PI3K delta it was 6 nM; in data set [1] it was 13 nM; in data set [2], 16 nM.

For `Cc1nn(C)c(C)c1-n1c(=O)n(C)c2cnc3ccc(-c4cnc(N)c(F)c4)cc3c21` [Example 142.1, 8-(6-Amino-5-fluoro-pyridin-3-yl)-3-methyl-1-(1,3,5-trimethyl-1H-pyrazol-4-yl)-1,3-dihydro-imidazo[4,5-c]quinolin-2-one], the solubility in “Solubility at pH 6.8” (setting [3]) is greater than 417 µg/mL. The IC50 at PI3K alpha is 28 nM; on PI3K delta, 4 nM; in data set [1] it was 157 nM; in data set [2], 300 nM.

As to `Cc1nn(C)cc1-n1c(=O)n(C)c2cnc3ccc(-c4ccc(OCCO)nc4)cc3c21` [Example 107, 1-(1,3-Dimethyl-1H-pyrazol-4-yl)-8-[6-(2-hydroxy-ethoxy)-pyridin-3-yl]-3-methyl-1,3-dihydro-imidazo[4,5-c]quinolin-2-one], the solubility in “Solubility at pH 6.8” (setting [3]) is 49 µg/mL (≈ 114 µM). Further, the IC50 at PI3K alpha stood at 17 nM; at PI3K delta, 28 nM; in data set [1] it was 85 nM; in data set [2], 101 nM.

Turning to `Cc1nn(C)cc1-n1c(=O)n(C)c2cnc3ccc(-c4cccc5c4OC(F)(F)O5)cc3c21` [Example 35, 8-(2,2-Difluoro-benzo[1,3]dioxol-4-yl)-1-(1,3-dimethyl-1H-pyrazol-4-yl)-3-methyl-1,3-dihydro-imidazo[4,5-c]quinolin-2-one], in the data set “Solubility at pH 6.8” (setting [3]), the solubility was 3 µg/mL (≈ 6.68 µM). The IC50 on PI3K alpha was found to be 5 nM; at PI3K delta, 29 nM; in data set [1], 8 nM; in data set [2] it was 10 nM.

`Cc1nn(C)cc1-n1c(=O)n(C)c2cnc3ccc(-c4cncc(C(C)(C)C#N)c4)cc3c21` [Example 220.1, 2-{5-[1-(1,3-Dimethyl-1H-pyrazol-4-yl)-3-methyl-2-oxo-2,3-dihydro-1H-imidazo[4,5-c]quinolin-8-yl]-pyridin-3-yl}-2-methyl-propionitrile] yielded a solubility in the data set “Solubility at pH 6.8” (pH 6.8) of 2 µg/mL (≈ 4.57 µM). Moreover, the IC50 at PI3K alpha worked out at 9 nM; on PI3K delta it was 8 nM; in data set [1], 10 nM; in data set [2], 18 nM.

`CCOc1ccc(-c2ccc3ncc4c(c3c2)n(-c2cnn(C)c2C)c(=O)n4C)cn1` [Example 3.6, 1-(1,5-Dimethyl-1H-pyrazol-4-yl)-8-(6-ethoxy-pyridin-3-yl)-3-methyl-1,3-dihydro-imidazo[4,5-c]quinolin-2-one] had a solubility in the data set “Solubility at pH 6.8” (pH 6.8) of 2 µg/mL (≈ 4.83 µM). For the same compound, the IC50 on PI3K alpha is 50 nM; on PI3K delta, 158 nM; in data set [1] it was 45 nM; in data set [2], 119 nM.

For the compound `CNc1ccc(-c2ccc3ncc4c(c3c2)n(-c2cn(C)nc2C)c(=O)n4C)cn1` [Example 118.2, 1-(1,3-Dimethyl-1H-pyrazol-4-yl)-3-methyl-8-(6-methylamino-pyridin-3-yl)-1,3-dihydro-imidazo[4,5-c]quinolin-2-one], the solubility in “Solubility at pH 6.8” (setting [3]) came out at 30 µg/mL (≈ 75.1 µM). In addition, the IC50 on PI3K alpha was 11 nM; at PI3K delta, 13 nM; in data set [1] it was less than 5 nM; in data set [2] it was less than 5 nM.
